Source: ChEMBL document CHEMBL3400015, “Tertiary amides of Salinomycin: A new group of antibacterial agents against Bacillus anthracis and methicillin-resistant Staphylococcus epidermidis” (Bioorg Med Chem Lett, 2015)
≈ marks a conversion by molar mass, not a printed value.

Legend:
Bacillus anthracis = assay: Antimicrobial activity against Bacillus anthracis 34F2 after 18 hrs by twofold serial broth dilution method; assay type: functional; conditions: 34F2, 18 h
Bacillus subtilis [1] = assay: Genotoxicity in rec-negative Bacillus subtilis M45 at 2 ug/9 mm disc after 24 hrs by disc diffusion method; assay type: toxicity, organism-based
Bacillus subtilis [2] = assay: Genotoxicity in rec-positive Bacillus subtilis H17 at 2 ug/9 mm disc after 24 hrs by disc diffusion method; assay type: toxicity, organism-based

SMILES | MIC (Bacillus anthracis) [µg/mL] | diameter of the inhibition zone (DIZ) (Bacillus subtilis [1]) [mm] | diameter of the inhibition zone (DIZ) (Bacillus subtilis [2]) [mm]
CC[C@@]1([C@H]2O[C@H]([C@H]3O[C@@](O)(CO)[C@H](C)C[C@@H]3C)C[C@H]2C)CC[C@H]([C@@]2(C)CC[C@]3(C[C@H](O)[C@@H](C)[C@@H]([C@H](C)[C@H](OC)[C@@H](C)C(=O)[O-])O3)O2)O1.[Na+] [MONENSIN SODIUM] | 1 | – | –
O=[N+]([O-])c1cc[n+]([O-])c2ccccc12 [4-NITROQUINOLINE-1-OXIDE] | – | 24 | 13
CC[C@@H](C(=O)[C@@H](C)[C@@H](O)[C@H](C)[C@@H]1O[C@@H]([C@@H](CC)C(=O)O)CC[C@@H]1C)[C@H]1O[C@]2(C=C[C@@H](O)[C@]3(CC[C@@](C)([C@H]4CC[C@](O)(CC)[C@H](C)O4)O3)O2)[C@H](C)C[C@@H]1C [SALINOMYCIN] | 1 (≈ 1.33 µM) | 32 | 31
CC[C@@H](C(=O)[C@@H](C)[C@@H](O)[C@H](C)[C@@H]1O[C@@H]([C@@H](CC)C(=O)[O-])CC[C@@H]1C)[C@H]1O[C@]2(C=C[C@@H](O)[C@]3(CC[C@@](C)([C@H]4CC[C@](O)(CC)[C@H](C)O4)O3)O2)[C@H](C)C[C@@H]1C.[Na+] [SALINOMYCIN SODIUM] | 1 | – | –
